The test system of the experiment is neuronal-type nicotinic receptors. The format is cell-based, bovine.

This is an account of results in patent publication US8759480B2, “Contoxin analogues and methods for synthesis of intramolecular dicarba bridge-containing peptides” (Syngene Limited, priority 2006, dated 2014).

Each structure is given as a SMILES string.

For `CN1CCCC1c1cccnc1` (stereo not shown) [NICOTINE, nicotine, reference compound], the “Adrenaline Release 1st” value was 4.31%, the “Adrenaline Release 2nd” value worked out at 4.52%, the “Adrenaline Release 3rd” value is recorded as 4.52% and the “Adrenaline Release 4th” value was 4.48%. The “Adrenaline Release % control” value is 100.000%, the “Adrenaline Release mean” value is reported as 4.46%, the “Noradrenaline Release 1st” value is 6.62% and the “Noradrenaline Release 2nd” value was found to be 6.89%. In addition, the “Noradrenaline Release 3rd” value amounted to 6.99%, the “Noradrenaline Release 4th” value was 6.89%, the “Noradrenaline Release % control” value is recorded as 100.000% and the “Noradrenaline Release mean” value was 6.85%. In addition, the “noradrenaline released, basal release (0.72%) subtracted” value is 6.13%.
